From PMC7429848, “XJB-5-131 inhibited ferroptosis in tubular epithelial cells after ischemia−reperfusion injury” (Cell Death & Disease, 2020)

What was measured:
[1] = stated without reference; cited from earlier work
[2] = test system: ferroptosis in TECs; assay: Renal I/R model: ferroptosis readouts (mitochondrial morphology, GSH-Px, MDA, 4-HNE, GPX4, ACSL4); format: in vivo; conditions: mice, unilateral I/R, 10 mg/kg i.p.
Protocol: (§1) After a minimum of 7 days of acclimation, the mice were anesthetized with a 1% sodium pentobarbital solution (6 mL/kg) by intraperitoneal injection and then placed in a prone position to maintain their body temperature at 36.8–37.2 °C during surgery. After a unilateral dorsal incision to expose the kidneys, the renal artery was occluded using a microvascular clamp (RoBoz Surgical Instrument Co, Gaithersburg, MD, USA) for 30 min. After that, the clamps were removed, and the animals were allowed to recover with free access to food and water.
(§2) To study the effects of XJB-5-131 on I/R injury, the mice were randomly allocated into the Vehi group and XJB group. The mice were injected intraperitoneally (i.p.) with XJB-5-131 (10 mg/kg) or the respective control 30 min prior to ischemia and for 3 consecutive days after surgery.
The renal cortices were cut into small pieces (1 mm^3) and fixed with 2.5% glutaraldehyde. Then the samples were dehydrated and embedded. Ultra-thin sections were stained and observed with a transmission electron microscope (Tecnai G^2 20 TWIN, FEI, USA).
(§3) Paraffin-embedded renal sections (4 μm) were deparaffinized in xylene, rehydrated in graded alcohol and blocked with 10% goat serum for 30 min. Mouse monoclonal anti-GSDMD (1:50, Santa), mouse monoclonal anti-4-HNE (1:100, R&D), rabbit polyclonal anti-MLKL, goat polyclonal anti-KIM-1 (1:800, R&D), rabbit polyclonal anti-Ki67 (1:100, Abcam), rabbit polyclonal anti-ACSL4 (1:200, Abcam), rabbit polyclonal anti-CD3 (1:100, Dako), rabbit polyclonal anti-ly6G (1:100, Abcam), rat polyclonal anti-F4/80 (1:50, Abcam), and rabbit polyclonal anti-Sox9 (1:100, Abcam) primary antibodies were incubated at 4 °C overnight and subsequently visualized with HRP-conjugated secondary antibody for IHC and fluorescently labeled secondary antibodies for IF. Staining was carefully quantified in each slide by capturing 15 randomly chosen fields in a blind manner, and the data were analyzed using Image Pro Plus software (Media Cybernetics, USA).
The levels of GSH-Px in kidneys were determined using GSH-Px assay kit, respectively (Beyotime China) in line with the manufacturer’s instructions.
Quantification of MDA levels in kidney tissue after I/R or sham operation was performed by using an MDA assay kit (Beyotime).
(§4) Renal tissues were lysed in RIPA lysis buffer containing protease inhibitor. Equal amounts of proteins (50 μg) were loaded and separated by 10% SDS-PAGE. The proteins were transferred onto polyvinylidene fluoride membranes (Millipore, USA). The membranes were blocked with 5% skimmed milk in Tris Buffered saline Tween (TBST) for 1 h at room temperature and were then incubated with appropriate primary antibodies against GPX4 (1:10000, Abcam), ACSL4 (1:10000, Abcam, UK), MLKL (1:1000, Abgent), p-MLKL (1:1000, Abcam), RIPK3 (1:1000, ABclonal), p-RIPK3 (1:1000, Abcam), GSDMD (1:1000, Santa) and GAPDH (1:5000, ABclonal) at 4 °C overnight. The blots were washed with TBST for 5 min and incubated with HRP-conjugated secondary antibodies (1:5000; ABclonal) for 1 h. After washing with TBST, the blots were visualized by the enhanced chemiluminescence method (ECL, Bio-Rad). The relative intensity of the target band was normalized to the corresponding loading control intensity and quantified by using ImageJ (NIH, USA).

[3] = test system: renal I/R injury; assay: Renal I/R model: intrarenal inflammatory cell infiltration and proinflammatory cytokine mRNA; format: in vivo; conditions: mice, unilateral I/R, 10 mg/kg i.p., vs I/R group
Protocol: as §1, §2, §3
Total RNA was extracted from kidney tissue using TRIzol reagent (Takara, Japan). Real-time PCR was carried out using a LightCycler 480 system (Roche, Pleasanton, CA, USA). Relative mRNA for RANTES, MCP-1, IL-6 and GAPDH was quantified in triplicate by SYBR Green RT-PCR.

[4] = Whole-body and organ fluorescence imaging and kidney frozen sections after BODIPY-FL-XJB-5-131 injection; format: in vivo; conditions: mice, BODIPY-FL-labeled XJB-5-131 i.v.
Protocol: (§5) The mice were sacrificed at 0.25, 0.5, 1, 2, 4 and 6 h after i.v. bolus administration of XJB-5-131. […] The concentration of XJB-5-131 in the liver was not obtained. The half-life (t1/2) was approximately 2 h. The area under the concentration–time curve (AUC0−6 h) of plasma was 322.7 µg·h/ml. The AUC0−6 h in the kidney was approximately […] compared with that of the AUC0−6 h in the brain (234.7 µg·h/g versus 4.1 µg·h/g). […] Moreover, the concentration in the kidney was almost close to the plasma concentration and lasted much longer, which predicted the therapeutic value of XJB-5-131 in kidney diseases. Next, we intravenously injected 3 mg/kg BODIPY-FL-XJB-5-131 into mice to explore the distribution of XJB-5-131 in the kidney, and whole-body fluorescence was analyzed at 0 and 30 min after injection.
Fig. 5 Pharmacokinetics and distribution analysis of XJB-5-131 in vivo and in vitro. a The structure of XJB-5-131. b The tissue concentrations of XJB-5-131 in mice. Mice were injected with XJB-5-131 and sacrificed after 0.25, 0.5, 1, 2, 4 and 6 h. Plasma, kidney, liver and brain were collected for in vivo-based pharmacokinetic assays by LC-MS/MS. […] Whole-body fluorescence imaging was performed at 0 and 30 min, and the fluorescence intensity of various organs (heart, kidney, liver and brain) was measured after 30 min. […]

[5] = test system: RIPK3, MLKL, GSDMD; assay: Renal I/R model: necroptosis and pyroptosis markers by western blot; format: in vivo; conditions: mice, unilateral I/R, with or without XJB-5-131
Protocol: as §1, §2, §4

[6] = test system: HT-1080 cells; parameters: method as in PMID 27725964; conditions: cited from earlier work
[7] = In vivo-based pharmacokinetic model, LC-MS/MS of plasma and tissue homogenates; parameters: species or system mice; conditions: for AUC0–6 h / AUC0–∞ / MRT0-6h / MRT0–∞ / t1/2 / tmax / Cmax: 3 mg/kg i.v. bolus
Protocol: as §5
Mice were injected with 3 mg/kg XJB-5-131 and were sacrificed at 0.25, 0.5, 1, 2, 4 and 6 h after injection. Plasma, kidney, liver and brain were collected to assess the XJB-5-131 concentration by LC-MS/MS. For plasma samples, an aliquot of 8 µL was protein precipitated with 160 µL IS, and the mixture was vortex-mixed and centrifuged at 12,000 × g for 15 min at 4 °C. Seventy microliters of supernatant was transferred to a 96-well plate and centrifuged for 5 min at 3220 × g and 4 °C, and then 6 µL of supernatant was directly injected for LC-MS/MS analysis. For tissue samples, tissue homogenates (kidney, brain and liver) were prepared by homogenizing tissue with threefold volume of homogenization solution (MeOH/15 mM PBS = 1:2). An aliquot of 20 µL was protein precipitated with 400 µL IS, and the mixture was vortex-mixed and centrifuged at 12,000 rpm for 15 min at 4 °C. Seventy microliters of supernatant was transferred to a 96-well plate and centrifuged for 5 min at 3220 × g and 4 °C, and then 6 µL of supernatant was directly injected for LC-MS/MS analysis.

[8] = parameters: method as in PMID 26415224; conditions: cited from earlier work
[9] = test system: renal I/R injury; assay: Renal I/R model: kidney injury and TEC repair (gross appearance, PAS, KIM-1, Ki67, Sox9); format: in vivo; conditions: mice
Protocol: as §1, §2
Paraffin-embedded renal sections (4 μm) were subjected to PAS staining to detect morphological changes in the cortex and medulla, and were scored in a blinded fashion using a semiquantitative design as previously reported.
as §3

[10] = unilateral I/R, 10 mg/kg i.p., day 3, vs I/R group

## CCOC(=O)c1ccc(NC2CCCCC2)c(N)c1 [Fer-1, ferrostatin-1]
[1]
  stability in plasma: poor

## CC(C)C[C@@H](/C=C/[C@H](Cc1ccccc1)C(=O)N1CCC[C@H]1C(=O)N[C@H](C(=O)N[C@@H](CCCNC(=O)OCc1ccccc1)C(=O)NC1CC(C)(C)N([O])C(C)(C)C1)C(C)C)NC(=O)OC(C)(C)C [XJB-5-131]
[2]
  4-HNE staining: less accumulation of lipid peroxidation
  I/R-induced increase in ACSL4 expression (western blot): inhibited
  renal GPX4 expression (western blot): significantly improved
  resistance of mitochondria in TECs to I/R injury (electron microscopy): increased resistance
[2]; day 3
  GSH-Px level in kidney: increased levels
  MDA level in kidney: decreased levels
[3]
  IL-6 mRNA expression in kidney: suppressed
  MCP-1 mRNA expression in kidney: suppressed
  RANTES mRNA expression in kidney: suppressed
  infiltration of inflammatory cells in the kidney (ly6G, CD3, F4/80 positive cells): reduced
[4]
  cell type distribution in the kidney (fluorescence microscopy of frozen sections): majority of XJB-5-131-positive cells were kidney TECs
[5]
  cleavage of GSDMD (GSDMD-N): no statistically significant difference
  expression of phosphorylated MLKL: no difference
  expression of phosphorylated RIPK3: no difference
[6]
  effect on ferroptosis: anti-ferroptotic effects
[7]; mice, brain
  AUC0–6 h: 4052 ng·h/g
  AUC0–∞: 4859 ng·h/g
  MRT0-6h: 3.14 h
  MRT0–∞: 1.98 h
  t1/2: 2.07 h
  tmax: 0.25 h
[7]; mice, brain and plasma
  Cmax: 2353 ng/g
[7]; mice, kidney
  AUC0–6 h: 234,683 ng·h/g
  AUC0–∞: 255,150 ng·h/g
  Cmax: 261,067 ng/g
  MRT0-6h: 2.05 h
  MRT0–∞: 1.42 h
  t1/2: 2.23 h
  tmax: 0.25 h
[7]; mice, plasma
  AUC0–6 h: 322,745 ng·h/mL
  AUC0–∞: 364,783 ng·h/mL
  Cmax: 186,667 ng/mL
  MRT0-6h: 2.65 h
  t1/2: 1.77 h
  tmax: 0.25 h
[7]; mice, i.v.
  half-life (t1/2): approximately 2 h
  plasma-tissue drug transfer: fast
[7]; mice, i.v., in vivo PK
  plasma stability: superior plasma stability
[7]; mice, i.v., kidney
  AUC0−6 h: 234.7 µg·h/g
  calculated maximal concentration (Cmax): 261.1 µg/g
[7]; mice, i.v., kidney and brain
  AUC0−6 h: 4.1 µg·h/g
[7]; mice, i.v., plasma
  AUC0−6 h: 322.7 µg·h/mL
  calculated maximal concentration (Cmax): 186.7 µg/mL
[7]; mice, i.v., plasma, kidney and brain
  time of Cmax after vein injection: 15 min
[7]; mouse liver homogenate, not detected by LC-MS/MS
  stability in liver homogenate: unstable
[8]
  conversion into XJB-hydroxylamine in situ: easily converted into XJB-hydroxylamine
[9]; I/R, day 3, PAS staining
  benefit at 10mg/kg versus 2.5mg/kg or 20mg/kg: better beneficial than other doses
[9]; I/R, day 3, vs I/R+Vehicle
  kidney injuries and casts (PAS staining): ameliorated
[9]; [10]
  KIM-1 expression (immunofluorescent staining): decreased
  Sox9 in TECs: dramatically activated
  congestion area at the junction of cortex and medulla: reduced
  loss of tubules (PAS tubular damage): alleviated
  number of Ki67-positive nuclei in TECs: much higher number
  ratio of injured kidney weight to body weight: decreased
